The text below walks through data of EP0096457B1, “Indium complexes of substituted 8-hydroxy-quinolines, pharmaceutical compositions containing them and their use as antibacterial agents” (NATIONAL RESEARCH DEVELOPMENT CORPORATION, priority 1982, dated 1983).

One may read the MIC as the least concentration at which growth counts as inhibited.

≈ marks a conversion by molar mass, not a printed value. Some results are limits rather than exact numbers.

Experiment [1] concerns Staphylococcus aureus (human isolate). Put plainly: Minimal inhibitory concentration (MIC) in broth culture. Type of experiment: cell-based. The note with it: trypticase soy broth with sodium bicarbonate, approx. 10^4 bacteria per ml, 18 hours at 37°C, 5% CO2 in air, lowest concentration with no visible growth, read-out: MIC Values S. aureus. How it is done:
(§1) Experiments were carried out to find the minimal inhibitory concentrations (MIC) for solutions of various indium complexes against Staphylococcus aureus (human isolate), Escherichia coli (018; co1V^+) and Klebsiella pneumoniae and to compare these with the MIC values for the corresponding metal-free compounds. The complexes were prepared in solution as described in Example 1 except that in the case of the complex of 7-iodo-8-hydroxyquinoline 5-sulphonic acid, 5 molar equivalents of metal-free compound were reacted with the indium chloride trihydrate and the solution was prepared in water. The solutions of the metal-free compounds were prepared in the same solvent as used for the equivalent complex.
(§2) The culture medium used consisted of a 9:1 mixture of trypticase soy broth and 6% w/v aqueous sodium bicarbonate solution. The medium was bulk inoculated with approximately 10^4 test bacteria per ml and 5.0 ml aliquots were then dispensed into sterile 20 ml bottles to which 0.05 ml of the test solution had been added. The test solutions were obtained from the original solution of the indium complex or metal-free compound by dilution to give a suitable range of concentrations in µM. Control samples, to which either no test solution was added or to which the solvent of the test solution only was added, were also prepared.
(§3) For each compound tested the samples at the various concentrations were studied to determine the lowest concentration of the compound at which no growth could be seen. The MIC values thus obtained are shown in Table 1 where it will be seen that the values are in each case lower for the indium complex as compared with the metal-free compound.

For experiment [2], the system named is Escherichia coli (018; co1V^+). The experiment is described as above. The note with it: trypticase soy broth with sodium bicarbonate, approx. 10^4 bacteria per ml, 18 hours at 37°C, 5% CO2 in air, lowest concentration with no visible growth, read-out: MIC Values E. coli. Type of experiment: cell-based. The protocol: as §1, §2, §3
The test system of experiment [3] is Klebsiella pneumoniae. The experiment is described as above. The experiment is classed as cell-based. The note with it: trypticase soy broth with sodium bicarbonate, approx. 10^4 bacteria per ml, 18 hours at 37°C, 5% CO2 in air, lowest concentration with no visible growth, read-out: MIC Values K. pneumoniae. The protocol:
as §1, §2, §3

In experiment [4] the test system is K. pneumoniae. Nature of the experiment: In vivo test in intraperitoneally infected mice (deaths). The note with it: groups of 5 Parks mice infected i.p. with 3.5 x 10^5 K. pneumoniae, i.p. treatment 0.2 ml twice per day for 4 days (indium complex 4.6 mg/kg, metal-free compound 3.4 mg/kg per dose). The protocol: (§4) The solutions for administration were prepared as follows: • (1) 2 equivalents of 5,7-dichloro-8-hydroxyquinoline were dissolved in a 15 mM solution of InCl3·3H2O in ethanol containing 1% v/v of glycerol. A 1.0 ml aliquot of this solution was dried in vacuo using a sterile universal container and the resultant residue was treated with 15 ml of sterile 0.15 M aqueous sodium chloride containing 1 % w/v of sodium bicarbonate and the solid dispersed by sonication. A 0.2 ml dose of the final preparation corresponds to a dose of 4.6 mg/kg in a 25 g mouse. • (2) 6.4 mg of 5,7-dichloro-8-hydroxyquinoline were moistened by the addition of 0.05 ml of dimethyl sulphoxide and to the moistened material was added 15 ml of sterile 0.15 M aqueous sodium chloride containing 1% w/v of sodium bicarbonate, the solid then being dispersed by sonication. A 0.2 ml dose of the final preparation corresponds to a dose of 3.4 mg/kg in a 25 g mouse.
(§5) Groups of 5 male or female Parks mice weighing from 23-25 g were infected by intraperitoneal injection of one of 8.0 x 10^6 E. coli, 3.5 x 10^5 K. pneumoniae and 7.0 x 10^8 S. aureus, the organisms in each case being suspended in 0.2 ml of 10% v/v trypticase soy broth in 0.15 M aqueous sodium chloride, three groups of mice being infected with each organism. For each organism, one of the three groups of infected mice was treated by intraperitoneal injection with 0.2 ml of a suspension of the indium complex whilst a second group was similarly treated with 0.2 ml of a supsension of the metal-free compound. The treatment was given twice per day for 1 day in the case of E. coli infection, twice per day for 4 days in the case of K. pneumoniae infection, and twice per day for 2 days in the case of the S. aureus infection. The third group of mice in each case received no treatment.

Experiment [5] concerns S. aureus (human isolate). The experiment is described as above. The note with it: groups of 5 Parks mice infected i.p. with 7.0 x 10^8 S. aureus, i.p. treatment 0.2 ml twice per day for 2 days (indium complex 4.6 mg/kg, metal-free compound 3.4 mg/kg per dose). How it is done: as §4, §5
The subject of experiment [6] is E. coli (108, co1V^+). The experiment is classed as in vivo. The settings on record: groups of 5 Parks mice infected i.p. with 8.0 x 10^6 E. coli, i.p. treatment 0.2 ml twice per day for 1 day (indium complex 4.6 mg/kg, metal-free compound 3.4 mg/kg per dose). How it is done: as §4
Groups of 5 male or female Parks mice weighing from 23-25 g were infected by intraperitoneal injection of one of 8.0 x 10^6 E. coli, 3.5 x 10^5 K. pneumoniae and 7.0 x 10^8 S. aureus, the organisms in each case being suspended in 0.2 ml of 10% v/v trypticase soy broth in 0.15 M aqueous sodium chloride, three groups of mice being infected with each organism. […]

On to `O=S(=O)(O)c1cc(I)c(O)c2ncccc12` [7-Iodo-8-hydroxyquinoline 5-sulphonic acid], for which the MIC in experiment [1], in experiment [2] and in experiment [3] was greater than 500 µM in each case.

Consider `Oc1ccc(Cl)c2cccnc12` [5-Chloro-8-hydroxyquinoline], for which the MIC in experiment [1] amounted to 18.8 µM (≈ 3.38 µg/mL); in experiment [2], 38.5 µM (≈ 6.91 µg/mL); in experiment [3], 38.5 µM (≈ 6.91 µg/mL).

In the case of `Oc1c(Cl)cc(Cl)c2cccnc12` [5,7-dichloro-8-hydroxyquinoline], the “Deaths at 7 days” value in experiment [4] was determined as 5; in experiment [5], 4; in experiment [6], 5. The values for the Deaths % in experiment [4] (at 7 days), in experiment [5] (at 7 days) and in experiment [6] (at 7 days) were 100%, 80% and 100%, respectively. For the same compound, the MIC in experiment [1] is 6.3 µM (≈ 1.35 µg/mL); in experiment [2] it was 100 µM (≈ 21.4 µg/mL); in experiment [3], 100 µM (≈ 21.4 µg/mL).
